Patent publication US11186565B2, “Aromatic compound” (TAKEDA PHARMACEUTICAL COMPANY LIMITED, priority 2017, dated 2021)

Target: T1, human GPR40 (Homo sapiens, UniProt O14842)
T1 construct: expressed in transfected cells
Test: Human GPR40 agonist activity with increase in intracellular Ca2+ concentration as an index
Type: cell-based
Conditions: test compound at final concentration 1 μM; CHO(dhfr−) cells stably expressing human GPR40; FLIPR Ca2+ fluorescence; 100% = 10 μM compound of WO 2015/020184 Example 153, 0% = DMSO
Procedure: Evaluation of Human GPR40 Agonist Activity with Increase in Intracellular Ca^2+ Concentration as an Index
CHO(dhfr−) cells that stably expressed human GPR40 were suspended in MEMα (Wako Pure Chemical Industries, Ltd.) containing 10% dialyzed serum (Thermo Fisher Scientific), 10 mM HEPES (Thermo Fisher Scientific), 100 U/mL penicillin, 100 μg/mL streptomycin (Wako Pure Chemical Industries, Ltd.), and plated on a 384 well black/clear cell culture plate at 10,000 cells/well. After culture overnight in a CO2 incubator at 37° C., the culture supernatant was removed, and loading buffer [Ca^2+ probe attached to Calcium Kit II-iCellux (DOJINDO) was dissolved in assay buffer (20 mM HEPES, 0.1% fatty acid-free BSA (Wako Pure Chemical Industries, Ltd.), 2.5 mM probenecid (DOJINDO)-containing HESS (Thermo Fisher Scientific))] was added at 30 μL/well. After leaving for 1 hr at room temperature under light shielding, assay buffer containing the test compound at a final concentration of 1 μM was added at 10 μL/well in fluorescence plate reader FLIPR Tetra (Molecular Devices), and the fluorescence amount was successively measured. Human GPR40 agonist activity was calculated using an increase in the intracellular Ca^2+ concentration as an index, wherein the activity of 10 μM of the compound of WO 2015/020184 (Example 153: 3-cyclopropyl-3-(2-((1-(2-((2-fluoro-2-methylpropyl)(4-methylpyridin-2-yl)carbamoyl)-5-methoxyphenyl)piperidin-4-yl)methoxy)pyridin-4-yl)propanoic acid) was 100%, and the activity when DMSO was added instead of the test compound was 0%.

T1 sequence (O14842 whole entry): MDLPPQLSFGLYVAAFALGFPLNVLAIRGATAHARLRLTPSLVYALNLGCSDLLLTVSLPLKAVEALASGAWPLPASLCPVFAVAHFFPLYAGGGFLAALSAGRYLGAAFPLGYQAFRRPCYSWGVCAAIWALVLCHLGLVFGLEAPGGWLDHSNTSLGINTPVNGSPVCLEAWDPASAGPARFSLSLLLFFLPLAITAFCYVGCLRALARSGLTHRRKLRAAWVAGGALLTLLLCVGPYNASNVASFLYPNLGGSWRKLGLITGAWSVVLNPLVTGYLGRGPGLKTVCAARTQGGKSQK

| Compound | activity (human GPR40 agonist activity) [%] |
| --- | --- |
| COc1ccc(-c2cnc(OCC(F)(F)F)nc2)c(O[C@H]2CC[C@H](Oc3cc(C(CC(=O)O)C4CC4)ccn3)CC2)c1 (stereo partly drawn) [Example 3, 3-cyclopropyl-3-(2-((trans-4-(5-methoxy-2-(2-(2,2,2-trifluoroethoxy)pyrimidin-5-yl)phenoxy)cyclohexyl)oxy)pyridin-4-yl)propanoic acid] | 84 |
| COc1cc(N2CCC(COc3cc([C@@H](CC(=O)O)C4CC4)ccn3)CC2)c(C2CCN(CC(F)(F)F)CC2)cn1 [Example 4, (3S)-3-cyclopropyl-3-(2-((1-(2-methoxy-5-(1-(2,2,2-trifluoroethyl)piperidin-4-yl)pyridin-4-yl)piperidin-4-yl)methoxy)pyridin-4-yl)propanoic acid] | 110 |
| COc1ccc(C2CCN(CC(F)(F)F)CC2)c(O[C@H]2CC[C@H](Oc3cc(C(CC(=O)O)C4CC4)ccn3)CC2)c1 (stereo partly drawn) [Example 1, 3-cyclopropyl-3-(2-((trans-4-(5-methoxy-2-(1-(2,2,2-trifluoroethyl)piperidin-4-yl)phenoxy)cyclohexyl)oxy)pyridin-4-yl)propanoic acid] | 86 |

Now from value to molecule:

| activity (human GPR40 agonist activity) [%] | Compound |
| --- | --- |
| 80 | COc1ccc(-c2ccc(OC)nc2)c(O[C@H]2CC[C@H](Oc3cc(C(CC(=O)O)C4CC4)ccn3)CC2)c1 (stereo partly drawn) [Example 7, 3-cyclopropyl-3-(2-((trans-4-(5-methoxy-2-(6-methoxypyridin-3-yl)phenoxy)cyclohexyl)oxy)pyridin-4-yl)propanoic acid] |
| 106 | COc1cc(N2CCC(COc3cc([C@@H](CC(=O)O)C4CC4)ccn3)CC2)c(NCC(F)(F)C(F)(F)F)cn1 [Example 6, (3S)-3-cyclopropyl-3-(2-((1-(2-methoxy-5-((2,2,3,3,3-pentafluoropropyl)amino)pyridin-4-yl)piperidin-4-yl)methoxy)pyridin-4-yl)propanoic acid] |
